Laboratory results: patent EP0281242B1, “Beta-alkylmelatonins” (ELI LILLY AND COMPANY, priority 1987, dated 1988)

tested on: rats and mice; assay: not given; details: cited from earlier work

SMILES | inhibition of the estrous phase of the estrous cycle and of ovulation
COc1ccc2[nH]cc(CCNC(C)=O)c2c1 [Melatonin, N-[2-(5-methoxy-3-indolyl)ethyl]acetamide] | inhibited both the estrous phase of the estrous cycle and ovulation

tested on: ovulation; assay: not given; details: compared to melatonin; cited from earlier work

SMILES | ovulation blocking activity
COc1cc2c(CCNC(C)=O)c[nH]c2cc1Cl [6-chloromelatonin] | increased ovulation blocking activity
COc1cc2c(CC(C)NC(C)=O)c[nH]c2cc1Cl (stereo not drawn) [α-Methyl-6-chloromelatonin] | no increased ovulation-blocking activity
COc1cc2c(CCNC(C)=O)c[nH]c2cc1F [6-fluoromelatonin] | increased ovulation blocking activity

tested on: Adult female rats; assay: Ovulation inhibition in adult female rats (ova in the oviduct on the day of estrus); format: in vivo; details: Rattus norvegicus, po; administered orally at noon on the day of proestrus; dose giving a 50% decrease in the number of ovulating non-control rats relative to control rats; read-out: Minimum effective inhibitory dose in mg per kilogram of rat weight
Protocol: The degree of ovulation inhibitory activity was determined according to the following protocol.
Adult female rats with regular estrus cycles of four days each are employed. The estrus cycle consists of 2 days of diestrus followed by a day of proestrus and then a day of estrus. […] On the afternoon of proestrus, luteinizing hormone (LH) is released into the blood by the pituitary gland. The LH travels to the ovary where it induces ovulation, resulting in the presence of eggs in the oviduct on the day of estrus.
The test compound is administered orally to the non-control rats at noon on the day of proestrus. Both control and non-control rats are sacrificed on the following day (estrus). The oviduct is removed from each rat and examined microscopically for the presence of ova.
Melatonin is included in Table I for comparative purposes.

SMILES | minimal effective dose [mg/kg]
CCC(CNC(C)=O)c1c[nH]c2ccc(OC)cc12 (racemic) [β-ethyl melatonin, β-Ethylmelatonin] | 1
COc1cc2c([C@H](C)CNC(C)=O)c[nH]c2cc1Cl [S-(-)-β-methyl-6-chloromelatonin] | > 5
COc1cc2c([C@@H](C)CNC(C)=O)c[nH]c2cc1Cl [R-(+)-β-methyl-6-chloromelatonin] | 1
COc1ccc2[nH]cc(CCNC(C)=O)c2c1 [Melatonin, N-[2-(5-methoxy-3-indolyl)ethyl]acetamide] | 32
COc1cc2c(C(C)CNC(C)=O)c[nH]c2c(Cl)c1Cl (racemic) [β-Methyl-6,7-dichloro-melatonin, β-methyl-6,7-dichloromelatonin] | 15
COc1ccc2[nH]cc([C@@H](C)CNC(C)=O)c2c1 [R-(+)-β-methyl melatonin, R-(+)-β-Methylmelatonin] | 1
COc1cc2c(C(C)CNC(C)=O)c[nH]c2cc1Cl (racemic) [β-methyl-6-chloro-melatonin, β-Methyl-6-chloromelatonin] | 2
COc1ccc2[nH]cc(C(C)CNC(C)=O)c2c1 (racemic) [β-methyl melatonin, β-Methylmelatonin] | 1
